# Measurements: article PMC12749748, “Chemically-induced degradation of the endoplasmic-reticulum stress sensor IRE1 by a VHL-recruiting chimera” (Nature Communications, 2025)
# Tests used:
# [1] = molecular target: T1, IRE1 H579A (Homo sapiens, UniProt O75460+P40337, H579A); assay: NanoLuc signal IRE1 depletion, IRE1 H579A, HEK293T cells; assay type: cell-based; conditions: HEK-293T
# T1 construct: N2731; host or cells: HEK293T
# Method: 8 × 10^5 293T cells per well were seeded in 6-well plates (Costar, #3516) and incubated at 37 °C, 5% CO2 for 6 h. A mixture of 0.2 µg ERN1 (IRE1)-NanoLuc Fusion Vector (Promega, NV1321), 2 µg HaloTag-VHL Fusion Vector (Promega, N2731), 6 µl FuGENE HD Transfection Reagent (Promega, E2311), and 100 µL Opti-MEM I reduced serum medium (Gibco, #31985062) per well was incubated at room temperature for 20 min before adding to cells. For expression of IRE1 mutants, site-directed mutagenesis was performed using the ERN1-NanoLuc Fusion Vector as the DNA template, and the transfection mixture was prepared in the same way as WT IRE1. After 18 h, cells from 6-well plates were trypsinized, resuspended in Opti-MEM I reduced serum medium, and reseeded into 96-well plates (Costar, #3917), with or without the addition of HaloTag NanoBRET 618 Ligand (Promega, G9801). After 18 h of incubation, a titration of G6374 (dilutions made in Opti-MEM I reduced serum medium) was added to the cells. After 2 h of G6374 treatment, NanoBRET Nano-Glo Substrate (Promega, N1571) was added to cells. The 96-well plates were imaged by GloMax Discover Microplate Reader (Promega, GM3000) with the default “BRET: NanoBRET 618” protocol (Donor: 450 BP; Acceptor: 600 LP; Integration: 0.3 s). Data analysis was performed according to the user manual.
# [2] = system: KMS27 cells; assay: Incucyte cell confluency, KMS27 cells; assay type: cell-based; conditions: KMS27 shIRE1 cells, titration
# Method: For non-adherent AMO1, KMS27, and OPM2 cells, cells were plated at 5000 cells/well in ultra-low attachment (ULA) 96-well plates (Costar, #7007) and centrifuged at 600 × g for 5 min for spheroid formation. For adherent U2OS and Colo201 cells, 2000 cells/well were seeded in a clear flat-bottom 96-well plate (Costar, #3595). Treatments were added at the time of cell seeding, and cells were cultured in complete RPMI media to a final volume of 200 µL/well. Cultures were maintained at 37 °C throughout the duration of the experiment. Cell confluency was tracked using the Incucyte live-cell imaging system (Sartorius S3). Picture frames were captured every 4 h with a 4× objective, and cell confluency (%) from the total well area as a function of time was calculated using the Incucyte software (version 2023 A Rev2).
# [3] = system: IRE1; parameters: method as in earlier work; conditions: VHL:G6374:IRE1; cited from earlier work
# [4] = molecular target: IRE1:VHL (Homo sapiens, UniProt O75460+P40337); assay: co-IP of endogenous VHL with endogenous IRE1 from AMO1 cells; assay type: cell-based; parameters: co-IP of endogenous VHL with endogenous IRE1 from AMO1 cells; endogenous in cells; host or cells: AMO1; conditions: titration of G6374
# Method: Cells were lysed in buffer containing 20 mM HEPES 7.2, 150 mM NaCl, and 1% Triton X-100, supplemented with fresh protease and phosphatase inhibitors (Invitrogen, #78440), cleared by centrifugation at 12,000 × g for 10 min, and analyzed by BCA protein assay (Thermo Fisher Scientific, #23227). Equal protein amounts were loaded, separated by SDS-PAGE, electrotransferred to nitrocellulose membranes using the iBLOT2 system (Invitrogen), and blocked in 5% nonfat milk solution for 60 min. Membranes were probed with primary antibodies at 1:1000 dilution in 5% milk at 4 °C overnight. Signal was detected using appropriate horseradish peroxidase (HRP)-conjugated secondary antibodies at 1:10,000 in 5% milk at room temperature for 1–2 h. Bands were visualized by the Azure 600 western blot imaging system (Azure Biosystems). For in vitro ubiquitination assays performed with Me-Ub, bands were visualized by the Odyssey CLx Imager (LI‑COR) after incubating the blots with the IRDye 800CW (LI-COR) secondary antibodies at 1:10,000 in Intercept Blocking Buffer (LI-COR) at room temperature for 1–2 h.
# IRE1.LD antibodies were conjugated to agarose beads using the AminoLink® Plus Immobilization Kit (Thermo Fisher, #44894). […]
# T1 sequence (O75460 19-977 H579A): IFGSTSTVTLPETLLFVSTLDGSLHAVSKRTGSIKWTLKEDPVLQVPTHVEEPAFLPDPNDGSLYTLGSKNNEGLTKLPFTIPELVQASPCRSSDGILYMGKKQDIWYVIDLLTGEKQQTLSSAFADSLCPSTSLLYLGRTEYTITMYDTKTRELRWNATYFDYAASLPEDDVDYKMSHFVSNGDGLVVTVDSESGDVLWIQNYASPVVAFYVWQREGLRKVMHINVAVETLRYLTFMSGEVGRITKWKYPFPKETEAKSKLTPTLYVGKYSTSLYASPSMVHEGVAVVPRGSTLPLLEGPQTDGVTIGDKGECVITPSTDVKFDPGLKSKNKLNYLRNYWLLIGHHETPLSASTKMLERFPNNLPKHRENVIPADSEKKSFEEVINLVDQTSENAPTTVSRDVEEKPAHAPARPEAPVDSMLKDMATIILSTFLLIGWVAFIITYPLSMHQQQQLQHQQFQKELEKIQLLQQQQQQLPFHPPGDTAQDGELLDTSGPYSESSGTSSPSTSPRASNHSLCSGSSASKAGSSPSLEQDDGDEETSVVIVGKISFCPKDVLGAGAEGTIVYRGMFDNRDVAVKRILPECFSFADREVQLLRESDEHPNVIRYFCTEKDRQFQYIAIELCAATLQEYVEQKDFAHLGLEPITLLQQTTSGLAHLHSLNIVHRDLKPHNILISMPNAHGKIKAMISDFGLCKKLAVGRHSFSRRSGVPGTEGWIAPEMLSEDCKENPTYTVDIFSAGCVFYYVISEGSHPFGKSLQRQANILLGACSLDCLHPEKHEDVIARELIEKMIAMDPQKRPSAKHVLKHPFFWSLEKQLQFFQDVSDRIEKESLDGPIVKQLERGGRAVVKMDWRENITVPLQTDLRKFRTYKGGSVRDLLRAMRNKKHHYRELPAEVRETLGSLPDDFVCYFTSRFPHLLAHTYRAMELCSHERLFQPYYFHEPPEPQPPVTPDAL
# T1 sequence (P40337 whole entry): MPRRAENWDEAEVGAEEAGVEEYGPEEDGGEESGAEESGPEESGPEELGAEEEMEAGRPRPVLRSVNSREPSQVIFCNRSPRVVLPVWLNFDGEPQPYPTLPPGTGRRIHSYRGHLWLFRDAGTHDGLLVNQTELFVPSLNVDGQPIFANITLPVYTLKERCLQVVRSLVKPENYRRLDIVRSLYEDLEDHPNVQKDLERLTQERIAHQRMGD
# T1 sequence (Q15369 whole entry partner): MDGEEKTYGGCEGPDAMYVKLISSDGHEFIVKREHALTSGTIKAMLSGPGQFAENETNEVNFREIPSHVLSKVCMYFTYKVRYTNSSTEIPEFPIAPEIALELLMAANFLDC
# T1 sequence (Q15370 whole entry partner): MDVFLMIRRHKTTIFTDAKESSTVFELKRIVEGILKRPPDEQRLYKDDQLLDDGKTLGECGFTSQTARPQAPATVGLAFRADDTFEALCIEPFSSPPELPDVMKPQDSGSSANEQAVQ
# T1 sequence (Q13617 whole entry partner): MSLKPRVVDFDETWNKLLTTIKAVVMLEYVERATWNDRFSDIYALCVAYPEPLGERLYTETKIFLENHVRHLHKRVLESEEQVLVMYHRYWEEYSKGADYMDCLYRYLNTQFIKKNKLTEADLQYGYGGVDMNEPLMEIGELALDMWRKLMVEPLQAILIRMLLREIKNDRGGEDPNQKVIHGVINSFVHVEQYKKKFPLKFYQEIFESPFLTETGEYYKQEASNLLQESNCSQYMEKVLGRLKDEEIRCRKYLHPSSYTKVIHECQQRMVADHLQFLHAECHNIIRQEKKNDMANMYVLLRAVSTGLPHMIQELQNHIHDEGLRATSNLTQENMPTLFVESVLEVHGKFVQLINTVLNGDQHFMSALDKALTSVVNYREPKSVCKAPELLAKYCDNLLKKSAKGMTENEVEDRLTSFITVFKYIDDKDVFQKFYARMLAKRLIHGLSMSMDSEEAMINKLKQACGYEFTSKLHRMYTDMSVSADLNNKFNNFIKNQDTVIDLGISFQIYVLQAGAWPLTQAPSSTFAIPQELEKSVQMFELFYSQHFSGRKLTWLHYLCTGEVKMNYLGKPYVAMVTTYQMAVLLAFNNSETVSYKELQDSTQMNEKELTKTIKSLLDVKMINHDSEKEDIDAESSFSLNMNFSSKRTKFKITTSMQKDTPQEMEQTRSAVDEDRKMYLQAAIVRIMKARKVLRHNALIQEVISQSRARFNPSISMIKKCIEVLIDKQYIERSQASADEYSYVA
# T1 sequence (P62877 whole entry partner): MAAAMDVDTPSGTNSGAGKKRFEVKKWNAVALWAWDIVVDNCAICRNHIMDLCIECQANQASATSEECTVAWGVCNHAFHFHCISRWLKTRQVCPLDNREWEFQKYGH
# IRE1:VHL, sequence (O75460 19-977): as the sequence (O75460 19-977 H579A) above, with A561H counted along it
# IRE1:VHL, sequence (P40337 whole entry): as the sequence (P40337 whole entry) above
# IRE1:VHL, sequence (Q15369 whole entry partner): as the sequence (Q15369 whole entry partner) above
# IRE1:VHL, sequence (Q15370 whole entry partner): as the sequence (Q15370 whole entry partner) above
# IRE1:VHL, sequence (Q13617 whole entry partner): as the sequence (Q13617 whole entry partner) above
# IRE1:VHL, sequence (P62877 whole entry partner): as the sequence (P62877 whole entry partner) above
compound,measurement,setting,value
Cc1ncsc1-c1ccc(CNC(=O)[C@@H]2C[C@@H](O)CN2C(=O)[C@@H](NC(=O)CCCCN2CCN([C@H]3CC[C@H](Nc4ncc5ccc(=O)n(C(C)C)c5n4)CC3)CC2)C(C)(C)C)cc1 [G6374],Dmax,[1],27%
same,growth inhibition (cell confluency),[2],concentration-dependent growth inhibition
same,Dmax,[3],95%
same,induced IRE1:VHL interaction (co-IP),[4],induced a much stronger interaction between the two proteins
